Entries after “also recorded” stand apart in the source; their conditions may differ.
What was measured:
mCECs = assay: Scratch wound assay of mCECs cultured with dissected corneas from treated mice; type: cell-based, mouse; conditions: FIG. 3A, 3B
Method: The potential function of neutrophil pyroptosis in corneal wound healing was next tested. Mouse corneas were first dissected with or without injury from WT, GsdmD^−/−, Gr-1 treated, and disulfiram treated mice, and cultured the dissected corneas with mCECs. A scratch wound was then created in the mCEC.
For disulfiram treatment of mice, disulfiram was dissolved in sesame oil (12.5 mg/ml). Mice were injected 16 hours before injury through intraperitoneal injection (50 mg/kg); injection continued daily for the duration of the experiment. For Gr-1 antibody treatment, mice were injected 16 hours and immediately before injury through intraperitoneal injection (100 μg/mouse).
To induce cellular migration, an in vitro scratch test was performed using mCECs. Cells were treated with dissected corneas or cytokines when they reached confluence, were subsequently scratched with a micropipette tip, and incubated for up to 12 hrs. Images were taken at 0, 3, 6, and 9 hours after the initial scratch. Images of wound closure were quantified by using ImageJ software.

injured corneas [1] = assay: Alkali induced corneal injury: corneal neovascularization, CD31 staining of corneal flat mount; type: in vivo, mice; conditions: disulfiram 50 mg/kg i.p. daily, FIG. 7G, 7H
Method: All animal care and usage followed NIH guidelines and were in accordance with the ARVO Statement for the Use of Animals in Ophthalmic and Vision Research. Rodent studies received IACUC approval by The Ohio State University. For all corneal wound healing models, injury was induced under anesthesia, all animals received topical antibiotics, and topical and systemic analgesics were provided for at least 72 h. To induce corneal injury, a 1.5 mm filter paper soaked in 1N NaOH was applied to the axial cornea for 30 seconds. The filter paper was then removed and the cornea rinsed with PBS for two minutes. After the cornea was thoroughly rinsed, fluorescein stain was applied to the cornea to verify corneal ulceration. For disulfiram treatment of mice, disulfiram was dissolved in sesame oil (12.5 mg/ml). Mice were injected 16 hours before injury through intraperitoneal injection (50 mg/kg); injection continued daily for the duration of the experiment. For Gr-1 antibody treatment, mice were injected 16 hours and immediately before injury through intraperitoneal injection (100 μg/mouse). Dissected eye from mice were fixed in 4% PFA for 24 to 48 hours at 4° C. […]

[2] = system: IL-1β, caspase 1 and GsdmD; conditions: discussion statement following citation of Hu et al.; cited from earlier work
Caspase-1 = assay: Western blot: Caspase-1 cleavage after disulfiram treatment; type: in vivo, mice; conditions: FIG. 17
Source text: (§1) While neutrophil pyroptosis plays a detrimental role during corneal wound healing, the initial neutrophil infiltration is critical for removing dead corneal cells and debris, which is part of the healing process. Thus, complete depletion of neutrophil may not be the ideal option to promote normal corneal healing. Disulfiram is an FDA approved drug, which has been recently been identified as a pyroptosis inhibitor (Hu, et al. Nat Immunol. 2020 21(7):736-745). Thus, tested was whether application of disulfiram could be an effective means to promote corneal wound healing. […] To confirm treatment of disulfiram could inhibit post-injury pyroptosis, Western blot analysis was performed on corneal samples before and after injury.
(§2) All animal care and usage followed NIH guidelines and were in accordance with the ARVO Statement for the Use of Animals in Ophthalmic and Vision Research. Rodent studies received IACUC approval by The Ohio State University. For all corneal wound healing models, injury was induced under anesthesia, all animals received topical antibiotics, and topical and systemic analgesics were provided for at least 72 h. To induce corneal injury, a 1.5 mm filter paper soaked in 1N NaOH was applied to the axial cornea for 30 seconds. The filter paper was then removed and the cornea rinsed with PBS for two minutes. […]

GsdmD [3] = assay: Western blot of corneal samples after alkali injury: GsdmD cleavage / pyroptosis; type: in vivo, mice; conditions: FIG. 2C
Source text: as §1, §2

GsdmD [4] = assay: Western blot of GsdmD cleavage in isolated primary mouse neutrophils; type: cell-based; conditions: primary neutrophils from mouse bone marrow; FIG. 12
Source text: (§3) To further confirm neutrophils undergo pyrotposis, primary neutrophils were isolated and purified from mouse bone marrow. Isolated neutrophils underwent pyroptosis quickly after isolation followed by activation of apoptosis, as evidenced by cleaved caspase-3 (FIG. 11).
(§4) Bone marrow samples were obtained as previously described. Briefly, lower limbs were collected from euthanized mice. All attached soft tissue was removed to fully expose the femurs and tibias. An 18G needle was inserted into hollow of the bone and pulse flush buffer (2% FBS in PBS) used to flush marrow into a 15 ml sterile centrifuge tube. The solution was then filtered with a 70-100 μm filter. The solution was centrifuged at […], and the bone marrow cells were resuspended in red blood cell lysis buffer for 5 minutes.
(§5) Separation of neutrophils using density gradient centrifugation was performed as previously described (Swamydas, et al. J Vis Exp. 2013 (77):e50586). The bone marrow cells were resuspended in 1 ml of ice-cold sterile PBS. Using a 15 mL conical tube, 3 ml of Histopaque 1119 was first added followed by an overlay of 3 mL of Histopaque 1077. The bone marrow cell suspension was then overlaid on the Histopaque 1077. The samples were centrifuged for 30 min at 2,000 rpm at 25° C. Neutrophils were then at the interface of the Histopaque 1119 and Histopaque 1077 layers. […]

injured corneas [5] = assay: Alkali induced corneal injury: re-epithelialization / wound healing (fluorescein); type: in vivo, mice; conditions: disulfiram 50 mg/kg i.p. daily from 16 h before injury, antibodies before wounding, FIG. 7C-7F
Method: All animal care and usage followed NIH guidelines and were in accordance with the ARVO Statement for the Use of Animals in Ophthalmic and Vision Research. Rodent studies received IACUC approval by The Ohio State University. For all corneal wound healing models, injury was induced under anesthesia, all animals received topical antibiotics, and topical and systemic analgesics were provided for at least 72 h. To induce corneal injury, a 1.5 mm filter paper soaked in 1N NaOH was applied to the axial cornea for 30 seconds. The filter paper was then removed and the cornea rinsed with PBS for two minutes. After the cornea was thoroughly rinsed, fluorescein stain was applied to the cornea to verify corneal ulceration. For disulfiram treatment of mice, disulfiram was dissolved in sesame oil (12.5 mg/ml). Mice were injected 16 hours before injury through intraperitoneal injection (50 mg/kg); injection continued daily for the duration of the experiment. For Gr-1 antibody treatment, mice were injected 16 hours and immediately before injury through intraperitoneal injection (100 μg/mouse).

Caspase-3 = assay: Western blot of Caspase-3 cleavage in isolated primary mouse neutrophils; type: cell-based; conditions: primary neutrophils from mouse bone marrow; FIG. 12
Source text: as §3, §4, §5

Which “inhibitory effects of injured corneas on mCECs migration (scratch wound closure)” value (mCECs) does the source give for `CCN(CC)C(=S)SSC(=S)N(CC)CC` [Disulfiram, Tetraethylthiuram disulfide] here?
The value was “greatly reduced”.

And the “corneal neovascularization (CNV), CD31 staining” value (injured corneas [1])?
The value was “significantly reduced; also recorded: significantly reduce neovascularization”.

And the “cleavage of caspase 1 and GsdmD” value [2]?
The value was “inhibit the cleavage of caspase 1 and GsdmD”.

What about the “release of mature IL-1β” value [2] of the same compound?
Its value is “inhibit the release of mature IL-1β”.

And the “cleavage of Caspase-1” value (Caspase-1)?
Its value is “suppress cleavage”.

What about the “cleavage of GsdmD (GsdmD-N expression)” value (GsdmD [3]; FIG. 17 (disulfiram), 24 hours after injury (Gr-1 antibody)) of the same compound?
Its value is “suppress cleavage”.

What about the “activation of pyroptosis after corneal injury” value (GsdmD [3]; corneal samples after alkali injury, FIG. 17) of the same compound?
Its value is “effectively inhibited pyroptosis”.

What about the “GsdmD cleavage in isolated neutrophils” value (GsdmD [4]) of the same compound?
The value was “inhibits cleavage of GsdmD; also recorded: significantly inhibit”.

And the “corneal wound healing / re-epithelialization” value (injured corneas [5])?
The value was “dramatically accelerated wound healing; also recorded: improved healing outcomes; also recorded: promote the re-epithelialization”.

And the “Caspase-3 cleavage in isolated neutrophils” value (Caspase-3)?
The value was “not cleavage of Caspase-3”.
